# Experimental data reported in the supplement of paper PMC10307832.
# Compound: Cc1nc(C(=O)NCC(=O)O)c(O)c2ccc(Oc3ccccc3)cc12 [FG-4592] + CC(=O)c1c(C)c2cnc(Nc3ccc(N4CCNCC4)cn3)nc2n(C2CCCC2)c1=O [Palbociclib] (partner 0.5 µM)
# Assay: relative viability (nuclei count vs DMSO), 5 days (fraction); higher = more cells survive
# Details: first compound 0.08 µM
# Method in brief: (§1)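 Lung cancer cell lines were seeded in 1536-well plates and dosed by pin tool the next day, with either a single drug or a fixed anchor-drug dose combined with five library-drug doses (not always all listed) spaced in √10 steps. Five days later, one step fixed the cells and stained their nuclei (final 0.05% Triton X-100, 1% formaldehyde, 1 ug/ml Hoechst), and nuclei were counted on 4× images. Relative viability is the nuclei count in treated wells divided by the count in vehicle wells, and each value is the median of duplicate plates.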
row,Cell Line,relative viability
1,NCI-H1651,0.522
2,EPLC-272H,0.323
3,NCI-H2228,0.678
4,NCI-H1792,0.493
5,NCI-H1355,0.394
6,NCI-H3122,0.194
7,NCI-H1437,0.313
8,NCI-H1755,0.476
9,NCI-H2023,0.334
10,HCC-15,0.73
11,PC-14,0.545
12,EKVX,0.358
13,LC-2-ad,0.473
14,NCI-H1944,0.329
15,NCI-H1975,0.511
16,RERF-LC-KJ,1.02
17,ABC-1,0.718
18,NCI-H358,0.114
19,NCI-H650,0.338
20,PC-3 [JPC-3],0.55

# Same assay, conditions: first compound 0.253 µM
row,Cell Line,relative viability
1,NCI-H1651,0.488
2,EPLC-272H,0.289
3,NCI-H2228,0.762
4,NCI-H1792,0.614
5,NCI-H1355,0.38
6,NCI-H3122,0.203
7,NCI-H1437,0.314
8,NCI-H1755,0.446
9,NCI-H2023,0.323
10,HCC-15,0.767
11,NCI-H1793,0.256
12,PC-14,0.415
13,EKVX,0.398
14,LC-2-ad,0.456
15,NCI-H1944,0.329
16,NCI-H1975,0.534
17,RERF-LC-KJ,0.89
18,ABC-1,0.503
19,NCI-H358,0.141
20,NCI-H650,0.264
21,PC-3 [JPC-3],0.542

# Same assay, conditions: first compound 0.8 µM
row,Cell Line,relative viability
1,NCI-H1651,0.488
2,EPLC-272H,0.327
3,NCI-H2228,0.603
4,NCI-H1792,0.689
5,NCI-H3122,0.168
6,NCI-H1437,0.299
7,NCI-H1755,0.409
8,NCI-H2023,0.315
9,HCC-15,0.684
10,PC-14,0.571
11,EKVX,0.355
12,LC-2-ad,0.515
13,NCI-H1944,0.282
14,NCI-H1975,0.53
15,RERF-LC-KJ,0.937
16,NCI-H358,0.128
17,NCI-H650,0.327

# Same assay, conditions: first compound 2.53 µM
row,Cell Line,relative viability
1,NCI-H1651,0.518
2,EPLC-272H,0.378
3,NCI-H2228,0.89
4,NCI-H1792,0.661
5,NCI-H1355,0.382
6,NCI-H3122,0.216
7,NCI-H1437,0.312
8,NCI-H1755,0.471
9,NCI-H2023,0.397
10,HCC-15,0.733
11,NCI-H1793,0.39
12,PC-14,0.486
13,EKVX,0.401
14,LC-2-ad,0.549
15,NCI-H1944,0.363
16,NCI-H1975,0.437
17,RERF-LC-KJ,1.05
18,ABC-1,0.537
19,NCI-H358,0.128
20,NCI-H650,0.321
21,PC-3 [JPC-3],0.557

# Same assay, conditions: first compound 8 µM
row,Cell Line,relative viability
1,NCI-H1651,0.458
2,EPLC-272H,0.283
3,NCI-H2228,0.421
4,NCI-H1792,0.684
5,NCI-H1355,0.356
6,NCI-H3122,0.197
7,NCI-H1437,0.243
8,NCI-H1755,0.463
9,NCI-H2023,0.286
10,HCC-15,0.755
11,NCI-H1793,0.293
12,PC-14,0.488
13,EKVX,0.29
14,LC-2-ad,0.476
15,NCI-H1944,0.29
16,NCI-H1975,0.379
17,RERF-LC-KJ,1.04
18,ABC-1,0.437
19,NCI-H358,0.136
20,NCI-H650,0.263
21,PC-3 [JPC-3],0.567

# Compound: Cc1nc(C(=O)NCC(=O)O)c(O)c2ccc(Oc3ccccc3)cc12 [FG-4592] + O=C(c1cc(Cc2n[nH]c(=O)c3ccccc23)ccc1F)N1CCN(C(=O)C2CC2)CC1 [Olaparib] (partner 8 µM)
# Assay: as above
# Details: first compound 0.08 µM
# Method in brief: as §1
row,Cell Line,relative viability
1,NCI-H1651,0.182
2,EPLC-272H,0.665
3,NCI-H2228,0.386
4,NCI-H1792,0.487
5,NCI-H1355,0.803
6,NCI-H3122,0.637
7,NCI-H1437,0.581
8,NCI-H1755,0.873
9,NCI-H2023,0.402
10,HCC-15,0.684
11,PC-14,0.268
12,EKVX,0.748
13,LC-2-ad,0.683
14,NCI-H1944,0.437
15,NCI-H1975,0.786
16,RERF-LC-KJ,0.853
17,ABC-1,0.781
18,NCI-H358,0.55
19,NCI-H650,0.343
20,PC-3 [JPC-3],1.1

# Same assay, conditions: first compound 0.253 µM
row,Cell Line,relative viability
1,NCI-H1651,0.175
2,EPLC-272H,0.633
3,NCI-H2228,0.697
4,NCI-H1792,0.432
5,NCI-H1355,0.66
6,NCI-H3122,0.606
7,NCI-H1437,0.602
8,NCI-H1755,0.837
9,NCI-H2023,0.471
10,HCC-15,0.709
11,NCI-H1793,0.727
12,PC-14,0.289
13,EKVX,0.844
14,LC-2-ad,0.694
15,NCI-H1944,0.392
16,NCI-H1975,0.747
17,RERF-LC-KJ,0.913
18,ABC-1,0.798
19,NCI-H358,0.552
20,NCI-H650,0.32
21,PC-3 [JPC-3],0.975

# Same assay, conditions: first compound 0.8 µM
row,Cell Line,relative viability
1,NCI-H1651,0.196
2,EPLC-272H,0.886
3,NCI-H2228,0.794
4,NCI-H3122,0.681
5,NCI-H1437,0.679
6,NCI-H1755,0.762
7,NCI-H2023,0.437
8,HCC-15,0.741
9,PC-14,0.258
10,EKVX,0.721
11,LC-2-ad,0.725
12,NCI-H1944,0.443
13,NCI-H1975,0.883
14,RERF-LC-KJ,0.861
15,NCI-H358,0.662
16,NCI-H650,0.44

# Same assay, conditions: first compound 2.53 µM
row,Cell Line,relative viability
1,NCI-H1651,0.17
2,EPLC-272H,0.74
3,NCI-H2228,0.517
4,NCI-H1792,0.457
5,NCI-H1355,0.759
6,NCI-H3122,0.656
7,NCI-H1437,0.651
8,NCI-H1755,0.907
9,NCI-H2023,0.464
10,HCC-15,0.615
11,NCI-H1793,0.827
12,PC-14,0.248
13,EKVX,0.901
14,LC-2-ad,0.755
15,NCI-H1944,0.376
16,NCI-H1975,0.849
17,RERF-LC-KJ,0.996
18,ABC-1,1.13
19,NCI-H358,0.579
20,NCI-H650,0.364
21,PC-3 [JPC-3],1.1

# Same assay, conditions: first compound 8 µM
row,Cell Line,relative viability
1,NCI-H1651,0.176
2,EPLC-272H,0.697
3,NCI-H2228,0.693
4,NCI-H1792,0.497
5,NCI-H1355,0.719
6,NCI-H3122,0.661
7,NCI-H1437,0.6
8,NCI-H1755,0.799
9,NCI-H2023,0.35
10,HCC-15,0.719
11,NCI-H1793,0.71
12,PC-14,0.302
13,EKVX,0.905
14,LC-2-ad,0.782
15,NCI-H1944,0.419
16,NCI-H1975,0.721
17,RERF-LC-KJ,0.894
18,ABC-1,1.07
19,NCI-H358,0.695
20,NCI-H650,0.354
21,PC-3 [JPC-3],1.12
